Experimental data from ChEMBL document CHEMBL1151757, “Synthesis, radiosynthesis, and biological evaluation of fluorine-18-labeled 2beta-carbo(fluoroalkoxy)-3beta-(3'-((Z)-2-haloethenyl)phenyl)nortropanes: candidate radioligands for in vivo imaging of the serotonin transporter with positron emission tomography” (J Med Chem, 2008).

Assays:
[1] = test system: Thalamus; assay: Drug uptake in anesthetized cynomolgus monkey brain thalamus after 225 mins postinjection; assay type: ADME, organism-based, Macaca fascicularis; set-up: unit not given here; details: in vivo, 3.75 h
[2] = Ratio of drug uptake in occipital lobe to cerebellum in anesthetized cynomolgus monkey after 175 mins postinjection; assay type: ADME, organism-based, Macaca fascicularis; details: in vivo
[3] = test system: Medulla; assay: Drug uptake in anesthetized cynomolgus monkey brain medulla after 75 mins postinjection; assay type: ADME, organism-based, Macaca fascicularis; details: in vivo, 1.25 h
[4] = Drug uptake in anesthetized cynomolgus monkey brain frontal lobe after 75 mins postinjection; assay type: ADME, organism-based, Macaca fascicularis; details: in vivo, 1.25 h
[5] = Ratio of drug uptake in occipital lobe to cerebellum in anesthetized cynomolgus monkey after 185 mins postinjection; assay type: ADME, organism-based, Macaca fascicularis; details: in vivo
[6] = test system: Pons; assay: Drug uptake in anesthetized cynomolgus monkey brain pons after 4.5 mins postinjection; assay type: ADME, organism-based, Macaca fascicularis; details: in vivo, 0.075 h
[7] = test system: Pons; assay: Drug uptake in anesthetized cynomolgus monkey brain pons after 95 mins postinjection; assay type: ADME, organism-based, Macaca fascicularis; details: in vivo
[8] = Drug uptake in anesthetized cynomolgus monkey brain frontal lobe after 18.5 mins postinjection; assay type: ADME, organism-based, Macaca fascicularis; details: in vivo
[9] = Drug uptake in anesthetized cynomolgus monkey brain occipital lobe after 9.5 mins postinjection; assay type: ADME, organism-based, Macaca fascicularis; details: in vivo
[10] = Ratio of drug uptake in medulla to cerebellum in anesthetized cynomolgus monkey after 95 mins postinjection; assay type: ADME, organism-based, Macaca fascicularis; details: in vivo
[11] = Drug uptake in anesthetized cynomolgus monkey brain occipital lobe after 235 mins postinjection; assay type: ADME, organism-based, Macaca fascicularis; details: in vivo
[12] = test system: Thalamus; assay: Drug uptake in anesthetized cynomolgus monkey brain thalamus after 135 mins postinjection; assay type: ADME, organism-based, Macaca fascicularis; set-up: unit not given here; details: in vivo, 2.25 h
[13] = test system: Pons; assay: Drug uptake in anesthetized cynomolgus monkey brain pons after 115 mins postinjection; assay type: ADME, organism-based, Macaca fascicularis; details: in vivo
[14] = test system: Caudate; assay: Drug uptake in anesthetized cynomolgus monkey brain caudate after 195 mins postinjection; assay type: ADME, organism-based, Macaca fascicularis, Caudate nucleus; details: in vivo, 3.25 h
[15] = Ratio of drug uptake in putamen to cerebellum in anesthetized cynomolgus monkey after 6.5 mins postinjection; assay type: ADME, organism-based, Macaca fascicularis; details: in vivo
[16] = Ratio of drug uptake in pons to cerebellum in anesthetized cynomolgus monkey after 125 mins postinjection; assay type: ADME, organism-based, Macaca fascicularis; details: in vivo
[17] = Ratio of drug uptake in frontal lobe to cerebellum in anesthetized cynomolgus monkey after 195 mins postinjection; assay type: ADME, organism-based, Macaca fascicularis; details: in vivo, 3.25 h
[18] = test system: Midbrain; assay: Drug uptake in anesthetized cynomolgus monkey brain midbrain after 155 mins postinjection; assay type: ADME, organism-based, Macaca fascicularis; details: in vivo
[19] = test system: Midbrain; assay: Drug uptake in anesthetized cynomolgus monkey brain midbrain after 55 mins postinjection; assay type: ADME, organism-based, Macaca fascicularis; set-up: unit not given here; details: in vivo
[20] = Ratio of drug uptake in occipital lobe to cerebellum in anesthetized cynomolgus monkey after 12.5 mins postinjection; assay type: ADME, organism-based, Macaca fascicularis; details: in vivo
[21] = test system: Putamen; assay: Drug uptake in anesthetized cynomolgus monkey brain putamen after 95 mins postinjection; assay type: ADME, organism-based, Macaca fascicularis; set-up: unit not given here; details: in vivo
[22] = Drug uptake in anesthetized cynomolgus monkey brain occipital lobe after 195 mins postinjection; assay type: ADME, organism-based, Macaca fascicularis; details: in vivo, 3.25 h
[23] = Drug uptake in anesthetized cynomolgus monkey brain occipital lobe after 165 mins postinjection; assay type: ADME, organism-based, Macaca fascicularis; details: in vivo, 2.75 h
[24] = Drug uptake in anesthetized cynomolgus monkey brain cerebellum after 15.5 mins postinjection; assay type: ADME, organism-based, Macaca fascicularis; details: in vivo
[25] = Drug uptake in anesthetized cynomolgus monkey brain cerebellum after 225 mins postinjection; assay type: ADME, organism-based, Macaca fascicularis; details: in vivo, 3.75 h
[26] = Ratio of drug uptake in thalamus to cerebellum in anesthetized cynomolgus monkey after 155 mins postinjection; assay type: ADME, organism-based, Macaca fascicularis; details: in vivo
[27] = test system: Midbrain; assay: Drug uptake in anesthetized cynomolgus monkey brain midbrain after 125 mins postinjection; assay type: ADME, organism-based, Macaca fascicularis; set-up: unit not given here; details: in vivo
[28] = test system: Medulla; assay: Drug uptake in anesthetized cynomolgus monkey brain medulla after 0.5 mins postinjection; assay type: ADME, organism-based, Macaca fascicularis; details: in vivo
[29] = test system: Thalamus; assay: Drug uptake in anesthetized cynomolgus monkey brain thalamus after 105 mins postinjection; assay type: ADME, organism-based, Macaca fascicularis; set-up: unit not given here; details: in vivo, 1.75 h
[30] = test system: Putamen; assay: Drug uptake in anesthetized cynomolgus monkey brain putamen after 185 mins postinjection; assay type: ADME, organism-based, Macaca fascicularis; details: in vivo
[31] = test system: Caudate; assay: Drug uptake in anesthetized cynomolgus monkey brain caudate after 6.5 mins postinjection; assay type: ADME, organism-based, Macaca fascicularis, Caudate nucleus; details: in vivo
[32] = test system: Midbrain; assay: Drug uptake in anesthetized cynomolgus monkey brain midbrain after 2.5 mins postinjection; assay type: ADME, organism-based, Macaca fascicularis; set-up: unit not given here; details: in vivo
[33] = Drug uptake in anesthetized cynomolgus monkey brain cerebellum after 18.5 mins postinjection; assay type: ADME, organism-based, Macaca fascicularis; details: in vivo
[34] = Ratio of drug uptake in putamen to cerebellum in anesthetized cynomolgus monkey after 9.5 mins postinjection; assay type: ADME, organism-based, Macaca fascicularis; details: in vivo
[35] = test system: Caudate; assay: Drug uptake in anesthetized cynomolgus monkey brain caudate after 2.5 mins postinjection; assay type: ADME, organism-based, Macaca fascicularis, Caudate nucleus; details: in vivo
[36] = Ratio of drug uptake in caudate to cerebellum in anesthetized cynomolgus monkey after 0.5 mins postinjection; assay type: ADME, organism-based, Macaca fascicularis; details: in vivo
[37] = Drug uptake in anesthetized cynomolgus monkey brain frontal lobe after 145 mins postinjection; assay type: ADME, organism-based, Macaca fascicularis; details: in vivo
[38] = test system: Putamen; assay: Drug uptake in anesthetized cynomolgus monkey brain putamen after 105 mins postinjection; assay type: ADME, organism-based, Macaca fascicularis; set-up: unit not given here; details: in vivo, 1.75 h
[39] = test system: Pons; assay: Drug uptake in anesthetized cynomolgus monkey brain pons after 175 mins postinjection; assay type: ADME, organism-based, Macaca fascicularis; details: in vivo
[40] = Drug uptake in anesthetized cynomolgus monkey brain frontal lobe after 15.5 mins postinjection; assay type: ADME, organism-based, Macaca fascicularis; details: in vivo
[41] = test system: Pons; assay: Drug uptake in anesthetized cynomolgus monkey brain pons after 195 mins postinjection; assay type: ADME, organism-based, Macaca fascicularis; details: in vivo, 3.25 h
[42] = test system: Caudate; assay: Drug uptake in anesthetized cynomolgus monkey brain caudate after 215 mins postinjection; assay type: ADME, organism-based, Macaca fascicularis, Caudate nucleus; details: in vivo
[43] = test system: Caudate; assay: Drug uptake in anesthetized cynomolgus monkey brain caudate after 95 mins postinjection; assay type: ADME, organism-based, Macaca fascicularis, Caudate nucleus; details: in vivo
[44] = test system: Caudate; assay: Drug uptake in anesthetized cynomolgus monkey brain caudate after 155 mins postinjection; assay type: ADME, organism-based, Macaca fascicularis, Caudate nucleus; details: in vivo
[45] = Drug uptake in anesthetized cynomolgus monkey brain cerebellum after 2.5 mins postinjection; assay type: ADME, organism-based, Macaca fascicularis; details: in vivo
[46] = Ratio of drug uptake in pons to cerebellum in anesthetized cynomolgus monkey after 175 mins postinjection; assay type: ADME, organism-based, Macaca fascicularis; details: in vivo
[47] = test system: Midbrain; assay: Drug uptake in anesthetized cynomolgus monkey brain midbrain after 205 mins postinjection; assay type: ADME, organism-based, Macaca fascicularis; details: in vivo
[48] = test system: Putamen; assay: Drug uptake in anesthetized cynomolgus monkey brain putamen after 235 mins postinjection; assay type: ADME, organism-based, Macaca fascicularis; details: in vivo
[49] = test system: Pons; assay: Drug uptake in anesthetized cynomolgus monkey brain pons after 1.5 mins postinjection; assay type: ADME, organism-based, Macaca fascicularis; details: in vivo, 0.025 h
[50] = test system: Medulla; assay: Drug uptake in anesthetized cynomolgus monkey brain medulla after 185 mins postinjection; assay type: ADME, organism-based, Macaca fascicularis; details: in vivo
[51] = test system: Medulla; assay: Drug uptake in anesthetized cynomolgus monkey brain medulla after 1.5 mins postinjection; assay type: ADME, organism-based, Macaca fascicularis; details: in vivo, 0.025 h
[52] = test system: Midbrain; assay: Drug uptake in anesthetized cynomolgus monkey brain midbrain after 27.5 mins postinjection; assay type: ADME, organism-based, Macaca fascicularis; set-up: unit not given here; details: in vivo
[53] = test system: Pons; assay: Drug uptake in anesthetized cynomolgus monkey brain pons after 9.5 mins postinjection; assay type: ADME, organism-based, Macaca fascicularis; details: in vivo
[54] = Ratio of drug uptake in putamen to cerebellum in anesthetized cynomolgus monkey after 45 mins postinjection; assay type: ADME, organism-based, Macaca fascicularis; details: in vivo, 0.75 h
[55] = Drug uptake in anesthetized cynomolgus monkey brain cerebellum after 65 mins postinjection; assay type: ADME, organism-based, Macaca fascicularis; details: in vivo
[56] = Drug uptake in anesthetized cynomolgus monkey brain occipital lobe after 18.5 mins postinjection; assay type: ADME, organism-based, Macaca fascicularis; details: in vivo
[57] = Drug uptake in anesthetized cynomolgus monkey brain frontal lobe after 155 mins postinjection; assay type: ADME, organism-based, Macaca fascicularis; details: in vivo
[58] = test system: Thalamus; assay: Drug uptake in anesthetized cynomolgus monkey brain thalamus after 95 mins postinjection; assay type: ADME, organism-based, Macaca fascicularis; set-up: unit not given here; details: in vivo
[59] = Ratio of drug uptake in occipital lobe to cerebellum in anesthetized cynomolgus monkey after 95 mins postinjection; assay type: ADME, organism-based, Macaca fascicularis; details: in vivo
[60] = test system: Thalamus; assay: Drug uptake in anesthetized cynomolgus monkey brain thalamus after 45 mins postinjection; assay type: ADME, organism-based, Macaca fascicularis; set-up: unit not given here; details: in vivo, 0.75 h
[61] = test system: Midbrain; assay: Drug uptake in anesthetized cynomolgus monkey brain midbrain after 75 mins postinjection; assay type: ADME, organism-based, Macaca fascicularis; set-up: unit not given here; details: in vivo, 1.25 h
[62] = test system: Putamen; assay: Drug uptake in anesthetized cynomolgus monkey brain putamen after 125 mins postinjection; assay type: ADME, organism-based, Macaca fascicularis; details: in vivo
[63] = Ratio of drug uptake in medulla to cerebellum in anesthetized cynomolgus monkey after 9.5 mins postinjection; assay type: ADME, organism-based, Macaca fascicularis; details: in vivo
[64] = Drug uptake in anesthetized cynomolgus monkey brain occipital lobe after 15.5 mins postinjection; assay type: ADME, organism-based, Macaca fascicularis; details: in vivo
[65] = Ratio of drug uptake in frontal lobe to cerebellum in anesthetized cynomolgus monkey after 125 mins postinjection; assay type: ADME, organism-based, Macaca fascicularis; details: in vivo
[66] = test system: Medulla; assay: Drug uptake in anesthetized cynomolgus monkey brain medulla after 205 mins postinjection; assay type: ADME, organism-based, Macaca fascicularis; details: in vivo
[67] = test system: Medulla; assay: Drug uptake in anesthetized cynomolgus monkey brain medulla after 115 mins postinjection; assay type: ADME, organism-based, Macaca fascicularis; details: in vivo
[68] = Ratio of drug uptake in frontal lobe to cerebellum in anesthetized cynomolgus monkey after 205 mins postinjection; assay type: ADME, organism-based, Macaca fascicularis; details: in vivo

Compound `O=C(OCCC[18F])C1C2CCC(CC1c1cccc(/C=C\I)c1)N2` (stereo not drawn) has a Drug uptake [1] of 2.83, a Ratio [2] of 1.1 and a Drug uptake [3] of 5.16. For the same compound, the Drug uptake [4] was 2.76, the Ratio [5] was 1.1 and the Drug uptake [6] was 1.92. The Drug uptake [7] was 4.41, the Drug uptake [8] was 2.5 and the Drug uptake [9] was 3.14. It also gave a Ratio [10] of 1.4, a Drug uptake [11] of 1.99 and a Drug uptake [12] of 4.02. It also gave a Drug uptake [13] of 3.98, a Drug uptake [14] of 2.74 and a Ratio [15] of 0.8. For the same compound, the Ratio [16] was 1.4, the Ratio [17] was 0.9 and the Drug uptake [18] was 4.35. For the same compound, the Drug uptake [19] was 4.98, the Ratio [20] was 0.8 and the Drug uptake [21] was 4.67. It also gave a Drug uptake [22] of 2.34, a Drug uptake [23] of 2.59 and a Drug uptake [24] of 4.75. It also gave a Drug uptake [25] of 1.87, a Ratio [26] of 1.6 and a Drug uptake [27] of 4.58. The Drug uptake [28] was 0.01, the Drug uptake [29] was 4.44 and the Drug uptake [30] was 3.51. The Drug uptake [31] was 2.53, the Drug uptake [32] was 0.98 and the Drug uptake [33] was 4.74. For the same compound, the Ratio [34] was 0.9, the Drug uptake [35] was 0.64 and the Ratio [36] was 1. It also gave a Drug uptake [37] of 2.29, a Drug uptake [38] of 4.52 and a Drug uptake [39] of 3.41. For the same compound, the Drug uptake [40] was 2.42, the Drug uptake [41] was 3.26 and the Drug uptake [42] was 2.54. The Drug uptake [43] was 3.82, the Drug uptake [44] was 3.19 and the Drug uptake [45] was 1.12. The Ratio [46] was 1.4, the Drug uptake [47] was 3.86 and the Drug uptake [48] was 3.02. It also gave a Drug uptake [49] of 0.21, a Drug uptake [50] of 3.93 and a Drug uptake [51] of 0.35. For the same compound, the Drug uptake [52] was 5.04, the Drug uptake [53] was 3.47 and the Ratio [54] was 1.1. The Drug uptake [55] was 4.08, the Drug uptake [56] was 3.85 and the Drug uptake [57] was 2.33. For the same compound, the Drug uptake [58] was 4.52, the Ratio [59] was 1 and the Drug uptake [60] was 4.84. The Drug uptake [61] was 5, the Drug uptake [62] was 4.31 and the Ratio [63] was 0.9. The Drug uptake [64] was 3.53, the Ratio [65] was 0.9 and the Drug uptake [66] was 3.76. For the same compound, the Drug uptake [67] was 4.59 and the Ratio [68] was 1.
